In BindingDB's records for patent US20260049071 (Beyang Therapeutics Co., 2026) one finds IC50 data, which are given here for 1 compound.

What all share (assay): Testing of the Ability of Compounds to Inhibit VEGFR and EGFR Kinase
In experiment [1] the target is Vascular endothelial growth factor receptor 3 (Homo sapiens, UniProt P35916). How it is done:
(§1) This assay directly monitored the ability of compounds to inhibit kinase phosphorylation by measuring non-phosphorylated and phosphorylated substrates in kinase reactions by using Mobility Shift Assays/IMAP™ analysis. Test Protocol and Procedures: Add the kinase and DTT to 1× kinase buffer to form a 2.5× kinase solution; transfer 10 μL of 2.5× kinase solution to a 384-well reaction plate and add 1× kinase buffer to negative control wells. Incubate the plate for 10 min at room temperature; add FAM-labeled peptides, MgCl2, ATP and other reagents to 1× kinase buffer to form a 2.5× substrate solution; transfer 10 μL of the above 2.5× substrate solution to the 384-well reaction plate; incubate the plate at 28° C. for different times,and add 25 μL of stop solution to the 384-well reaction plate to stop the reaction. Read the conversion ratio data on CaliperEZ Reader II.

For experiment [2], the target named is Epidermal growth factor receptor (Homo sapiens, UniProt P00533). On the procedure:
as §1

Experiment [3] has as its target Vascular endothelial growth factor receptor 1 (Homo sapiens, UniProt P17948). On the procedure:
as §1

pIC50: −log10 of the molar value.

Chain of Vascular endothelial growth factor receptor 3 (P35916 whole entry): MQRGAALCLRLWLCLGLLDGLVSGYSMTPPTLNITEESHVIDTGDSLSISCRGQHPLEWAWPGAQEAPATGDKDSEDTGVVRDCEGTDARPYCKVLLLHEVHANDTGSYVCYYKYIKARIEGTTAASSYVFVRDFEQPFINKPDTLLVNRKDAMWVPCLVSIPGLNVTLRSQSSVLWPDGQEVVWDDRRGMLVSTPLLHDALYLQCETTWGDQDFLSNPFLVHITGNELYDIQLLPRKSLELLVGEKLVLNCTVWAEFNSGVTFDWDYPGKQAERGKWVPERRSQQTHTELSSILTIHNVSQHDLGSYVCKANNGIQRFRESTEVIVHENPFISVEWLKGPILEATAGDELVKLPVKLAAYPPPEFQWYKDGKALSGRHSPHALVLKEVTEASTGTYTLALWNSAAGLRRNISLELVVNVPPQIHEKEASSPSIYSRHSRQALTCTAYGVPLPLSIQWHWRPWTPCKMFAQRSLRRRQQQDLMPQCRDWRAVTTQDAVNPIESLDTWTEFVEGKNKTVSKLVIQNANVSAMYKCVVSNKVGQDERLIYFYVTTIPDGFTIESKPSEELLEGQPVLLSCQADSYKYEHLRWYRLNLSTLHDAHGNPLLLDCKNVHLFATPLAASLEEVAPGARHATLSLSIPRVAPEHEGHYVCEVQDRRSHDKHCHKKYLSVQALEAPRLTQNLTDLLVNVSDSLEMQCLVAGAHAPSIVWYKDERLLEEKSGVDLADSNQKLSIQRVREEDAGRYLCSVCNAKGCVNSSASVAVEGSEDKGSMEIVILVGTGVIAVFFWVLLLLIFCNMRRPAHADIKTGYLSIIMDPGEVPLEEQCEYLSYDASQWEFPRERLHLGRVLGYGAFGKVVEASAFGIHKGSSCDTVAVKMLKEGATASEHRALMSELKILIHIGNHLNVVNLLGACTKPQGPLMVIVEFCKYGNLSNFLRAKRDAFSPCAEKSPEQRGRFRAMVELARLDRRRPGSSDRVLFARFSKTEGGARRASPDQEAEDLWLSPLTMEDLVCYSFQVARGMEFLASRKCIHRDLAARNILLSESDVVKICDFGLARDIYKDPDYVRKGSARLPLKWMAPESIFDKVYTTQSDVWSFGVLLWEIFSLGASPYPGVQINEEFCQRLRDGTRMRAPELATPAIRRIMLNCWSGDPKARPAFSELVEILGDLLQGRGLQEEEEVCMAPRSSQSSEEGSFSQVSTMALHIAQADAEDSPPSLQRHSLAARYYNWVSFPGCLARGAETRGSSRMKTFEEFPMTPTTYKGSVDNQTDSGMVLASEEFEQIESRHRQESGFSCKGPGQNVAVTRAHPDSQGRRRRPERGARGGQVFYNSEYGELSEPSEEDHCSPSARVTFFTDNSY
Chain of Epidermal growth factor receptor (P00533 whole entry): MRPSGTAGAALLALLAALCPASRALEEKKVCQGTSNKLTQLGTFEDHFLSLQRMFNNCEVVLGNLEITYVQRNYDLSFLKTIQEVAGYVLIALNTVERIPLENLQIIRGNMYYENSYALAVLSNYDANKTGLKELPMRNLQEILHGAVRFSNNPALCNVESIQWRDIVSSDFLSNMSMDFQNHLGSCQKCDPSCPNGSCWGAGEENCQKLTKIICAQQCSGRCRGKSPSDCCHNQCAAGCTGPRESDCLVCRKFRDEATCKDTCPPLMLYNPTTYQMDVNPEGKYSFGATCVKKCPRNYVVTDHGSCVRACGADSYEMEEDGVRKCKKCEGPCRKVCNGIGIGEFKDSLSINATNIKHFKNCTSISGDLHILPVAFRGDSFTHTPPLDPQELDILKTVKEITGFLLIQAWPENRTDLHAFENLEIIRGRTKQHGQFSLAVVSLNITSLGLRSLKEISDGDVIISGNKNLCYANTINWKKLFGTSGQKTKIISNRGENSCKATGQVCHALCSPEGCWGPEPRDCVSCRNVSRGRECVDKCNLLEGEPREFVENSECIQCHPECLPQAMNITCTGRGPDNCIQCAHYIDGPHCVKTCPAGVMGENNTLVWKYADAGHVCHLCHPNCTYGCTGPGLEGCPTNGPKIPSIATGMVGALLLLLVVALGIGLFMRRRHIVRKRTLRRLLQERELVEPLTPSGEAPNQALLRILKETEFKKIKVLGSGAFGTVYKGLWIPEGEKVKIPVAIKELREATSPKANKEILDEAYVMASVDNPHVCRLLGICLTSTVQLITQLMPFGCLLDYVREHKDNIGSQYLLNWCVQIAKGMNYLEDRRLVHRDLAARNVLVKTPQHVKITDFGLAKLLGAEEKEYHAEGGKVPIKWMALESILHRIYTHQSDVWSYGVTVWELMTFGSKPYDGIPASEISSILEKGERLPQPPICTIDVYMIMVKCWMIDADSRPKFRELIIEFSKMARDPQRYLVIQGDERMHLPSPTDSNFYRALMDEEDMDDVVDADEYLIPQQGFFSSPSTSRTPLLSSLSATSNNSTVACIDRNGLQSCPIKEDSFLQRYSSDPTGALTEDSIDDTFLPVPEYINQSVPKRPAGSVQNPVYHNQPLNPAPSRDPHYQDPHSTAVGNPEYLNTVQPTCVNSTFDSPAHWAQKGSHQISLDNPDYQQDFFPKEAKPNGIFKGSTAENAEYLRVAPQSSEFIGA
Chain of Vascular endothelial growth factor receptor 1 (P17948 whole entry): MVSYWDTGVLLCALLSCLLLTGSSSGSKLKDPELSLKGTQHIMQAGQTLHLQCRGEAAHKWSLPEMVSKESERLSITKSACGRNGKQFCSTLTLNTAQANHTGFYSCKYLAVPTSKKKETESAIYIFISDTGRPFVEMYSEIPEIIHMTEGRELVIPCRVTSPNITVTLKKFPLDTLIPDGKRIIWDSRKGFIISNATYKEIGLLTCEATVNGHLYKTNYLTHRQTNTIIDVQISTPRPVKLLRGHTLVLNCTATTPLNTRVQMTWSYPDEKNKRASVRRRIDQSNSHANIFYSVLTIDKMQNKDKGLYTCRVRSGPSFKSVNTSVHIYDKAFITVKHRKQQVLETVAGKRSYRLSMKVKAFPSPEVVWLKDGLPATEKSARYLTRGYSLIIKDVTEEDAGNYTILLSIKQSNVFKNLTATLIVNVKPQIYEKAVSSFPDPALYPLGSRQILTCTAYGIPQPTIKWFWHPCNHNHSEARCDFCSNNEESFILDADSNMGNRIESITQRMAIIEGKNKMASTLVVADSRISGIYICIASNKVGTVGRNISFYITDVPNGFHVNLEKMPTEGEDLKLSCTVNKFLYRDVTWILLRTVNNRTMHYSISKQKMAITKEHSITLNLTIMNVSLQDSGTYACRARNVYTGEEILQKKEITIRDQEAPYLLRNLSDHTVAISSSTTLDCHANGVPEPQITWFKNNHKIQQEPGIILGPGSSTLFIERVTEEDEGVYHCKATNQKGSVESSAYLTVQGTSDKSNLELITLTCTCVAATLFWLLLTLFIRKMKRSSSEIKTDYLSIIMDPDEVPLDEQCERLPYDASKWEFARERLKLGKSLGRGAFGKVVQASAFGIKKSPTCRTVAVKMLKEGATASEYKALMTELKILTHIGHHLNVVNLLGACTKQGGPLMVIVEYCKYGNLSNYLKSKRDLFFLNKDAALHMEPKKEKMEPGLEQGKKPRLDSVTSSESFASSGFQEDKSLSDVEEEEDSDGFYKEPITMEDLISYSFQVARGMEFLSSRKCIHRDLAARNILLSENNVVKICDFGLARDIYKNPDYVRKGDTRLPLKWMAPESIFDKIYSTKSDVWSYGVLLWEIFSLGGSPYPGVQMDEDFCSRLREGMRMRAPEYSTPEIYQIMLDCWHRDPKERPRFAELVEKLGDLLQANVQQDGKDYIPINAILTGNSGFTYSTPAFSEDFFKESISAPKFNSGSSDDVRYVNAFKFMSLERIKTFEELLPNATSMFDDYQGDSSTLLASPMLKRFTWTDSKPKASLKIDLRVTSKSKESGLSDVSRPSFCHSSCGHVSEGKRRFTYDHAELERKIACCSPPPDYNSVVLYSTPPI

As a reminder, the pIC50 is the IC50 on a negative log10 scale, so that one unit is a factor of ten. The low end stands for a large IC50, the high end for a small IC50. Usually IC50 stands for the concentration that gives 50% inhibition. Lower therefore signals higher potency. As to `NC(=O)c1ccccc1Sc1ccc2c(/C=C/c3cnn(CCCN4CCCC4)c3)n[nH]c2c1` [US20260049071, No. I-44], the results for the pIC50 in experiment [1] and in experiment [3] were 7.00 to 8.00 and 8.00 to 9.00, respectively. Further, in experiment [2], the IC50 result is “in the range around 33000 nM”.
